# From the METLIN SMRT retention time set (Domingo-Almenara et al. 2019)
# Assay: gradient 5% acetonitrile 3 min, to 50% in 2 min, to 85% in 15 min, held 3 min, 100 µL/min
# Conditions: column: Zorbax Extend-C18 2.1 x 50 mm; eluents: water / acetonitrile, 0.1% formic acid
# Method in brief: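 Retention time was recorded from adduct peaks, which were picked computationally and each inspected manually. Pure standards ran in mixtures of ~100 molecules on HPLC coupled to a quadrupole time-of-flight mass spectrometer, in positive and negative ionization mode, through a Zorbax Extend-C18 column (2.1 × 50 mm, 1.8 μm) at 100 μL/min. Eluents were water and acetonitrile, each with 0.1% formic acid.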
row,SMILES,RP-LC retention time [s]
1,CCCCC(=O)N1CCN(c2ncccc2-c2nnc(C(C)C)o2)CC1,794
2,O=C(CCn1nnc2cc(-c3noc(-c4ccc(Cl)cc4)n3)ccc21)N1CCCC1,1010
3,COc1ccc(C(=O)N2C[C@@H]3C[C@H](NC(=O)c4cccs4)[C@H]2C3)c(C)c1,628
4,COc1ccc(NS(=O)(=O)c2cc(-c3[nH]ncc3C(=O)N(C)C)oc2C)c(C)c1,681
5,CCOc1ccc(C(=O)N2CCCC2c2nc(-c3ccc(OC)cc3)no2)cc1OCC (configuration not stated),982
6,CCOC(=O)Cc1ccc(NC(=O)NCc2c(C)nn(C)c2C)cc1,680
7,O=C(NCc1cccc(Br)c1)C1CCCN(c2nccnc2Sc2ccccc2)C1 (configuration not stated),1130
8,CCCNC(=O)C1CCN(c2ccc(SCC(=O)Nc3cc(C)c(Cl)cc3OC)nn2)CC1,766
9,COc1ccc(-c2nnc(COc3cccc(NC(=O)C4CCCC4)c3)o2)cc1,959
10,CC(C)(C)NC(=O)c1cc2c(n(-c3ccc(C(F)(F)F)cc3)c1=O)CCCC2=O,949
11,Cc1cccc(C)c1NC(=O)Cn1nc2c(Oc3cccc(F)c3)nccn2c1=O,825
12,CCOc1cc(-c2noc(-c3nnn4c3COC(c3ccc(C)cc3C)C4)n2)ccc1OC (configuration not stated),1250
13,Cc1oc(C(C)C)nc1C(=O)NCc1ccccc1C(F)(F)F,1050
14,CCOC(=O)c1noc2ncnc(Nc3ccccc3OCC)c12,971
15,O=C(NCC1CCCO1)N1CCCn2nc(-c3cccc(Cl)c3)cc2C1 (configuration not stated),792
16,C[C@]12CC[C@@H]3c4ccc(O)cc4C[C@@H](CCCCCCCCCS(=O)CCCC(F)(F)C(F)(F)F)[C@H]3[C@@H]1CC[C@@H]2O (some centres not stated),1250
17,Cn1cc(S(=O)(=O)Nc2ccc(F)c(F)c2)c2cccnc21,790
18,CC(Cc1ccco1)NC(=O)c1ccc2nc(Cc3ccccc3)oc2c1 (configuration not stated),947
19,Cn1cc(-c2nc(C(=O)NCc3ccccc3Cl)cs2)c2cccnc21,989
20,Cc1ccc2nc(-c3cccc(Cl)c3)c(Nc3ccc4c(c3)OCO4)n2c1,746
21,O=C(CC1(O)C(=O)Nc2c(Cl)cc(Cl)cc21)c1cccc([N+](=O)[O-])c1 (configuration not stated),792
22,CCN(C(=O)c1ccco1)c1nc(-c2ccc(Br)cc2)cs1,1320

row,SMILES,RP-LC retention time [s]
1,COc1cc(C(=O)NC(C)COc2ccc(C(C)C)cc2)cc(OC)c1OC (configuration not stated),965
2,COc1ccc(C(=O)N2CCN(c3c(C)n(C)c(=O)n(C)c3=O)CC2)cc1,697
3,Cc1nc(N2CCN(c3ncccn3)CC2)nc2c1C(=O)CCC2,886
4,O=S(=O)(Nc1ccc2c(c1)OCCO2)c1ccc(-c2nnc(C3CCC3)o2)o1,842
5,CCCCN1C(=O)C(C)(C(=O)NCc2ccccc2C)Oc2cccnc21 (configuration not stated),1050
6,CNC(=O)C1CCCN(c2nc3ncn(CC(=O)Nc4ccc5c(c4)OCO5)c(=O)c3s2)C1 (configuration not stated),1110
7,CCc1nc2cc(-c3noc(-c4cccc(OC)c4)n3)ccc2o1,1210
8,CCOc1ccc(Cl)cc1S(=O)(=O)N1CCC(C(=O)Nc2ccccc2C(=O)OC)CC1,1150
9,CCOc1ccc(-c2[nH]ncc2CNS(=O)(=O)Cc2ccc(C)cc2)cc1,853
10,N#CC1=C(SCC(=O)Nc2nccs2)NC(=O)CC1c1ccccc1F (configuration not stated),696
11,CCN1CCn2cc(S(=O)(=O)N3CCN(c4cccc(C)c4)CC3)cc2C1=O,858
12,Cc1ncc([N+](=O)[O-])n1CC(C)O (configuration not stated),609
13,COc1ccc(Cl)cc1S(=O)(=O)N1CCCC(C(=O)NCCCOC(C)C)C1 (configuration not stated),855
14,COc1ccc(CN2C[C@@H]3C(=O)N(CCCN4CCCC4=O)C(=O)[C@@H]3C2)cc1,589
15,CCOc1ccccc1CN1C[C@@H]2C(=O)N(Cc3ccc4c(c3)OCO4)C(=O)[C@@H]2C1,727
16,C=CCn1nnc(NCc2ccc(-c3ccc(Br)cc3Br)o2)n1,1200
17,O=C(C1CCN(c2ncnc3c2nc2n3CCCCC2)CC1)N1CCN(c2ccccn2)CC1,592
18,CC1(C)C(=O)N(CC(=O)Nc2ccc(F)c(Cl)c2)c2ccccc21,966
19,COc1cc(CNC(=O)C2CCCN(c3nccc(C)n3)C2)cc(OC)c1OC (configuration not stated),655
20,c1ccc(Nc2c(-c3ccccc3)nc3cnccn23)cc1,826
21,O=C(Nc1ccc2c(c1)OCCO2)N1CCc2nc(-c3ccccc3)ncc2C1,848
22,COc1ccc(-c2nnc3sc(-c4cccnc4)nn23)cc1OC,695

row,SMILES,RP-LC retention time [s]
1,Cc1nn(-c2nc(-c3ccc(F)cc3)cs2)c(C)c1CC(=O)Nc1ccc(Br)cc1,1240
2,CCOC(=O)Cn1c(=O)c2c(nc3n2CC(C)CN3c2ccc(OC)cc2)n(C)c1=O (configuration not stated),888
3,CCOc1cccc(CNC(=O)c2cn(C)nc2S(=O)(=O)N2CCSCC2)c1,889
4,COCCNC(=O)NCCn1c(-c2ccc(C)cc2)nc2cccnc21,588
5,O=C(Cn1cc(S(=O)(=O)Cc2ccccc2F)c2ccccc21)NCC1CCCO1 (configuration not stated),806
6,CCc1c(C)nc2ncnn2c1N1CCCC1,733
7,Cc1ccccc1CNC(=O)C1CCCN1S(=O)(=O)c1cc2c(cc1C)NC(=O)CO2 (configuration not stated),732
8,O=C(NCCc1ccccc1)NCCC1CCN(S(=O)(=O)c2ccc(F)cc2)CC1,887
9,CCOC(=O)c1ccc2c(=O)c(C(=O)OCC)c[nH]c2c1,661
10,O=C1NC(=O)[C@@H](c2cn3c4c(cccc24)CCC3)[C@@H]1c1c[nH]c2ccccc12,947
11,O=C(Cn1cnc(-c2ccc(F)cc2)cc1=O)NCc1cccs1,703
12,CC1CCN(S(=O)(=O)c2ccc(-c3nnc(C(=O)NCCCOC(C)C)o3)cc2)CC1,1030
13,Cc1ccc(-c2nnc(Cc3nc(-c4cccc(C)c4)no3)o2)cc1,1110
14,O=C(c1nccnc1-c1nc2ccccc2s1)N1CCc2ccccc21,941
15,Cc1cc(C(=O)Nc2cccc3ccccc23)n(-c2ccccc2)n1,908
16,CC(C)c1ccc(NC(=O)C2CCCN(C(=O)C3Sc4ccccc4NC3=O)C2)cc1 (configuration not stated),913
17,O=C(Nc1ccc(-c2nc(-c3ccccc3)no2)cc1)C1CC(=O)N(C2CCCCC2)C1 (configuration not stated),1070
18,Cn1nnnc1SCC(=O)Nc1nc(-c2ccccc2)c(-c2ccccc2)o1,888
19,CCC(C)NC(=O)C1CCN(c2cncnc2N2CCCC2)CC1 (configuration not stated),608
20,COc1ccc(CC(=O)N2CCCC2c2cc(C)on2)cc1 (configuration not stated),736
21,Cc1cc(C(=O)Nc2ccccc2F)nc2cc(-c3cccs3)nn12,1300
22,Cc1nc2c(sc3nc(-c4ccccc4)ccc32)c(=O)n1CC(=O)NCc1ccc(F)cc1,994

row,SMILES,RP-LC retention time [s]
1,Cc1cccc2cc(-c3noc(-c4ccccc4)n3)c(NCCc3ccc(S(N)(=O)=O)cc3)nc12,1440
2,CCCS(=O)(=O)N1CCC(c2noc(-c3ccccc3)n2)C1 (configuration not stated),933
3,Cc1ccc(-n2cc(C(=O)NCc3ccccc3Cl)nn2)cc1,921
4,COc1ccccc1NC(=O)c1c(O)c2cccnc2n(-c2ccc(F)cc2)c1=O,864
5,Cc1cc(N2CCC(NC(=O)Nc3ccccc3)C2=O)ccc1F (configuration not stated),824
6,Cc1ccc(-c2nc(CN3CCN(C(=O)NC4CCCC4)CC3)c(C)o2)cc1,677
7,Fc1cccc(-c2nc3ncccn3c2NCc2ccc(Cl)cc2)c1,834
8,O=C(c1cccnc1)N1CCN(C(=O)c2nnn3c2COC(c2ccccc2)C3)CC1 (configuration not stated),640
9,CCOC(=O)[C@H]1O[C@@H]1C(=O)N[C@@H](CC(C)C)C(=O)NCCC(C)C,992
10,CCn1nnc2ccc(-c3noc(CNC(=O)c4ccccc4)n3)cc21,773
11,O=S(=O)(c1ccc2c(c1)OCCO2)N1CCCn2nc(-c3cccs3)cc2C1,908
12,Cc1cccc(N2CCN(C(=O)C3CCCN(c4nc5ccccc5n5cccc45)C3)CC2)c1C (configuration not stated),977
13,COCCN1C(=O)c2cccn2CC1CNS(=O)(=O)c1cccc2nsnc12 (configuration not stated),677
14,O=C(Nc1nccs1)c1cc(-c2ccncc2)nc2ccccc12,614
15,CNC(=O)N1CCCC(c2cccc(C(=O)N3CCN(c4ccccc4Cl)CC3)c2)C1 (configuration not stated),904
16,CCOc1ccc(N2C(=O)CN(C(C)c3ccccc3)[C@H]3CS(=O)(=O)C[C@H]32)cc1 (some centres not stated),863
17,CCc1ccc(NC(=O)Cc2nnc3cc(-c4nc(CC)no4)ccn23)cc1,826
18,CCc1nc(OCC(=O)Nc2ccc(OC)cc2OC)c2ccccc2n1,788
19,CCOc1ccc(-c2noc(Cn3nc(-c4ccc5c(c4)OCO5)ccc3=O)n2)cc1,1130
20,O=C(Nc1ccc(F)cc1)C1CCN(S(=O)(=O)c2cc(C(=O)N3CCOCC3)cs2)CC1,755
21,Cc1ccc(-c2nc3cnccn3c2Nc2ccc(C)cc2Br)cc1,1140
